Structures can show the parent of a compound that is named as a salt.
Tests used:
[1] = molecular target: T1, rh beta tryptase (Homo sapiens, UniProt Q15661); test: tryptase inhibition test (cleavage of N-p-tosyl-Gly-Pro-Lys-para-nitroaniline, p-nitroaniline measured at 405 nm); format: biochemical; conditions: Tris HCl buffer pH 7.4 with calcium and heparin, 37° C., substrate 0.6 mM, 5 minutes pre-incubation, 5 minutes incubation
T1 construct: purchased Promega
Experimental: The compounds according to the invention are characterised by their tryptase-inhibiting activity. This ability to inhibit tryptase was investigated using the test described below.
The measurement is carried out in Tris HCl buffer (100 mM), which additionally contains calcium (5 mM) and heparin ([…]), at pH 7.4. The standard used is rh beta tryptase which may be obtained commercially from Promega, for example. The substrate used is N-p-tosyl-Gly-Pro-Lys-para-nitroaniline in a concentration of 0.6 mM. The substrate is digested with tryptase to form p-nitroaniline which can be measured at 405 nm. Usually, an incubation period of 5 minutes and an incubation temperature of 37° C. are chosen. The enzyme activity used is 0.91 U/ml. The measurements are carried out in an Autoanalyser (Cobas Bio) made by Hofmann LaRoche. The potential inhibitory substances are used in concentrations of 10 μM in the screening, the inhibition of the tryptase being given in percent. The IC50 is determined at over 70% inhibition (concentration at which 50% of the enzyme activity is inhibited). After 5 minutes pre-incubation of the potential inhibitory substances, the substrate is added to start the reaction, the formation of p-nitroaniline being taken as a measurement of the enzyme activity after 5 minutes, after testing the linearity.
The data obtained after carrying out the tests described above (IC50 values) can be found in Table 2.

T1 sequence (Q15661 31-275): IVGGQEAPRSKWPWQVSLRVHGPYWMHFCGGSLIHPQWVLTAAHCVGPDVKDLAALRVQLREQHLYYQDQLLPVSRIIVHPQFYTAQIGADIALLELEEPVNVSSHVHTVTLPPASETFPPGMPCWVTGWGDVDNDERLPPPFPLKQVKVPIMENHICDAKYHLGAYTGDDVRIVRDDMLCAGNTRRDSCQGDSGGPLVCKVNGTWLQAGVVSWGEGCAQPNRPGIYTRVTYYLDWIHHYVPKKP

| SMILES | melting point [°C] | IC50 [1] [nM] |
| --- | --- | --- |
| CCN(CC)CCN(c1ccc2c(c1)nc(CCc1ccc(C(=N)N)cc1)n2C)S(=O)(=O)c1ccc(C(=O)O)cc1 (as salt: fumarate) [Example 14, N-{2-[2-(4-amidinophenyl)-ethyl]-1-methyl-benzimidazol-5-yl}-N-diethylaminoethyl-[4-carboxy-benzenesulphonamide]-fumarate] | 200 to 204 |  |
| CCN(CC)CCN(c1ccc2c(c1)nc(CCc1ccc(C(=N)N)cc1)n2C)S(=O)(=O)c1ccc(N)cc1 (as salt: hydrochloride) [Example 8, N-{2-[2-(4-amidinophenyl)-ethyl]-1-methyl-benzimidazol-5-yl}-N-diethylaminoethyl-(4-amino-benzenesulphonamide)-tetrahydrochloride] | 190 to 205 |  |
| CCN(CC)CCN(c1ccc2c(c1)nc(CCc1ccc(C(=N)N)cc1)n2C)S(=O)(=O)c1ccc(OC)cc1 (as salt: hydrochloride) [Example 12, N-{2-[2-(4-amidinophenyl)-ethyl]-1-methyl-benzimidazol-5-yl}-N-diethylaminoethyl-(4-methoxy-benzenesulphonamide)-trihydrochloride] | 190 to 200 |  |
| CN(C)c1cccc2c(S(=O)(=O)N(C)c3ccc4c(c3)nc(CCc3ccc(C(=N)N)cc3)n4C)cccc12 (as salt: hydrochloride) [Example 13, N-{2-[2-(4-amidinophenyl)-ethyl]-1-methyl-benzimidazol-5-yl}-N-methyl-(dansylamide)-hydrochloride] | 222 to 225 |  |
| CCN(CC)CCN(c1ccc2c(c1)nc(CCc1ccc(C(=N)N)cc1)n2C)S(=O)(=O)c1ccc([N+](=O)[O-])cc1 [Example 4, N-{2-[2-(4-amidinophenyl)-ethyl]-1-methyl-benzimidazol-5-yl}-N-diethylaminoethyl-(4-nitro-benzenesulphonamide)-hydrochloride] |  | 23 |
| CCN(CC)CCN(c1ccc2c(c1)nc(CCc1ccc(C(=N)N)cc1)n2C)S(=O)(=O)c1cccc(OC)c1 [Example 5, N-{2-[2-(4-amidinophenyl)-ethyl]-1-methyl-benzimidazol-5-yl}-N-diethylaminoethyl-(3-methoxy-benzenesulphonamide)-hydrochloride] |  | 24 |
| CCN(CC)CCN(c1ccc2c(c1)nc(CCc1ccc(C(=N)N)cc1)n2C)S(=O)(=O)c1cccc(C)c1 [Example 6, N-{2-[2-(4-amidinophenyl)-ethyl]-1-methyl-benzimidazol-5-yl}-N-diethylaminoethyl-(3-methyl-benzenesulphonamide)-hydrochloride] |  | 30 |
| CCN(CC)CCN(c1ccc2c(c1)nc(CCc1ccc(C(=N)N)cc1)n2C)S(=O)(=O)c1cccc(Cl)c1 [Example 7, N-{2-[2-(4-amidinophenyl)-ethyl]-1-methyl-benzimidazol-5-yl}-N-diethylaminoethyl-(3-chloro-benzenesulphonamide)-hydrochloride] |  | 30 |
| CCN(CC)CCN(c1ccc2c(c1)nc(CCc1ccc(C(=N)N)cc1)n2C)S(=O)(=O)c1ccc(N)cc1 [Example 8, N-{2-[2-(4-amidinophenyl)-ethyl]-1-methyl-benzimidazol-5-yl}-N-diethylaminoethyl-(4-amino-benzenesulphonamide)-tetrahydrochloride] |  | 34 |
| CCN(CC)CCN(c1ccc2c(c1)nc(CCc1ccc(C(=N)N)cc1)n2C)S(=O)(=O)c1ccc(NC(C)=O)cc1 [Example 9, N-{2-[2-(4-amidinophenyl)-ethyl]-1-methyl-benzimidazol-5-yl}-N-diethylaminoethyl-(4-acetylamino-benzenesulphonamide)] |  | 44 |
| CCN(CC)CCN(c1ccc2c(c1)nc(CCc1ccc(C(=N)N)cc1)n2C)S(=O)(=O)c1cc(C(F)(F)F)cc(C(F)(F)F)c1 [Example 16, N-{2-[2-(4-amidinophenyl)-ethyl]-1-methyl-benzimidazol-5-yl}-N-2-diethylaminoethyl-[3,5-di-(trifluoromethyl)-benzenesulphonamide] dihydrochloride] |  | 25 |
| CCN(CC)CCN(c1ccc2c(c1)nc(CCc1ccc(C(=N)N)cc1)n2C)S(=O)(=O)c1ccc2cc(O)ccc2c1 [Example 17, N-{2-[2-(4-amidinophenyl)-ethyl]-1-methyl-benzimidazol-5-yl}-N-2-diethylaminoethyl-(6-hydroxy-naphth-2-ylsulphonamide) dihydrochloride] |  | 280 |
| CCN(CC)CCN(c1ccc2c(c1)nc(CCc1ccc(C(=N)N)cc1)n2C)S(=O)(=O)c1cccc(C(F)(F)F)c1 [Example 18, N-{2-[2-(4-amidinophenyl)-ethyl]-1-methyl-benzimidazol-5-yl}-N-2-diethylaminoethyl-(3-trifluoromethyl-benzenesulphonamide) dihydrochloride] |  | 43 |
| CN(C)c1cccc2c(S(=O)(=O)N(CCN)c3ccc4c(c3)nc(CCc3ccc(C(=N)N)cc3)n4C)cccc12 [Example 20, N-{2-[2-(4-amidinophenyl)-ethyl]-1-methyl-benzimidazol-5-yl}-N-aminoethyl-(dansylamide) dihydrochloride] |  | 22 |
| CN(C)c1cccc2c(S(=O)(=O)N(Cc3ccncc3)c3ccc4c(c3)nc(CCc3ccc(C(=N)N)cc3)n4C)cccc12 [Example 25, N-{2-[2-(4-amidinophenyl)-ethyl]-1-methyl-benzimidazol-5-yl}-N-pyrid-4-ylmethyl-(dansylamide) dihydrochloride] |  | 36 |
| CCN(CC)CCN(c1ccc2c(c1)nc(CCc1ccc(C(=N)N)cc1)n2C)S(=O)(=O)c1ccc2cc(OC)ccc2c1 [Example 27, N-{2-[2-(4-amidinophenyl)-ethyl]-1-methyl-benzimidazol-5-yl}-N-diethylaminoethyl-(6-methoxy-naphth-2-ylsulphonamide) diacetate] |  | 17.3 |
| CCN(CC)CCN(c1ccc2c(c1)nc(CCc1ccc(C(=N)N)cc1)n2C)S(=O)(=O)c1cccc([N+](=O)[O-])c1 [Example 28, N-{2-[2-(4-amidinophenyl)-ethyl]-1-methyl-benzimidazol-5-yl}-N-2-diethylaminoethyl-(3-nitro-benzenesulphonamide) dihydrochloride] |  | 44 |
| CCN(CC)CCN(c1ccc2c(c1)nc(CCc1ccc(C(=N)N)cc1)n2C)S(=O)(=O)c1cccc(N)c1 [Example 29, N-{2-[2-(4-amidinophenyl)-ethyl]-1-methyl-benzimidazol-5-yl}-N-2-diethylaminoethyl-(3-amino-benzenesulphonamide) dihydrochloride] |  | 52 |

The remaining lines, values ahead:

| melting point [°C] | IC50 [1] [nM] | SMILES |
| --- | --- | --- |
|  | 9.7 | CCOC(=O)c1ccc(S(=O)(=O)N(CCN(CC)CC)c2ccc3c(c2)nc(CCc2ccc(C(=N)N)cc2)n3C)cc1 [Example 1, N-{2-[2-(4-amidinophenyl)-ethyl]-1-methyl-benzimidazol-5-yl}-N-diethylaminoethyl-(4-ethoxycarbonyl-benzenesulphonamide)-hydrochloride] |
|  | 17 | CCN(CC)CCN(c1ccc2c(c1)nc(CCc1ccc(C(=N)N)cc1)n2C)S(=O)(=O)c1cccc(Br)c1 [Example 3, N-{2-[2-(4-amidinophenyl)-ethyl]-1-methyl-benzimidazol-5-yl}-N-diethylaminoethyl-(3-bromo-benzenesulphonamide)-hydrochloride] |
|  | 8.8 | CCN(CC)CCN(c1ccc2c(c1)nc(CCc1ccc(C(=N)N)cc1)n2C)S(=O)(=O)c1cccc(C(C)(C)c2ccccc2)c1 [Example 19, N-{2-[2-(4-amidinophenyl)-ethyl]-1-methyl-benzimidazol-5-yl}-N-2-diethylaminoethyl-[3-(1-methyl-1-phenyl-ethyl)-benzenesulphonamide] dihydrochloride] |
|  | 4.1 | CCN(CC)CCN(c1ccc2c(c1)nc(CCc1ccc(C(=N)N)cc1)n2C)S(=O)(=O)c1ccc(C(C)(C)C)cc1 [Example 21, N-{2-[2-(4-amidinophenyl)-ethyl]-1-methyl-benzimidazol-5-yl}-N-diethylaminoethyl-(4-tert-butyl-benzenesulphonamide) dihydrochloride] |
|  | 14 | CN(C)c1cccc2c(S(=O)(=O)N(Cc3ccccn3)c3ccc4c(c3)nc(CCc3ccc(C(=N)N)cc3)n4C)cccc12 [Example 22, N-{2-[2-(4-amidinophenyl)-ethyl]-1-methyl-benzimidazol-5-yl}-N-pyrid-2-ylmethyl-(dansylamide) dihydrochloride] |
|  | 13 | CN(C)c1cccc2c(S(=O)(=O)N(Cc3cccnc3)c3ccc4c(c3)nc(CCc3ccc(C(=N)N)cc3)n4C)cccc12 [Example 23, N-{2-[2-(4-amidinophenyl)-ethyl]-1-methyl-benzimidazol-5-yl}-N-pyrid-3-ylmethyl-(dansylamide) dihydrochloride] |
|  | 13 | CCN(CC)CCN(c1ccc2c(c1)nc(CCc1ccc(C(=N)N)cc1)n2C)S(=O)(=O)c1cccc2cccc(Cl)c12 [Example 24, N-{2-[2-(4-amidinophenyl)-ethyl]-1-methyl-benzimidazol-5-yl}-N-diethylaminoethyl-(8-chloronaphth-1-ylsulphonamide) dihydrochloride] |
|  | 7.6 | Cn1c(CCc2ccc(C(=N)N)cc2)nc2cc(N(Cc3ccccc3)S(=O)(=O)c3ccc(C(C)(C)C)cc3)ccc21 [Example 26, N-{2-[2-(4-amidinophenyl)-ethyl]-1-methyl-benzimidazol-5-yl}-N-benzyl-(4-tert-butyl-benzenesulphonamide) dihydrochloride] |

Reference: patent US6413990B1, “Arylsulphonamide-substituted benzimidazoles having tryptase-inhibiting activity” (Boehringer Ingelheim Pharma KG, priority 1999, dated 2002)
